We go through 60 molecules from ChEMBL document CHEMBL4017441, “Mitigating the inhibition of human bile salt export pump by drugs: opportunities provided by physicochemical property modulation, in silico modeling, and structural modification” (Drug Metab Dispos, 2012).

The target of this experiment is Bile salt export pump (Homo sapiens, UniProt O95342). Format: ADME.

*1 amine or outer side, *2 acyl side, *3 side chain or, on linkers, in order; H or OH if unused. Where a SMILES comes first, the peptide text is derived from it. Bridges are numbered along the chain shown (N, C = ends). [ ]: non-standard residue; d: D form. The star is where a group is joined. ξ: configuration not given here. X2 = N=C1NC(O)C[C@H]([C@H](N[*:1])C(=O)[*:2])N1; ΔAla(Z-3-ureido) = NC(=O)N/C=C(\N)C(=O)O; ξβ3hOrn = NCCCC(N)CC(=O)*; Dap = NC[C@H](N)C(=O)O Bounds are passed on as bounds.

By IC50 is commonly meant the point on the concentration scale where inhibition reaches its midpoint. Take `NC(=O)c1ccc([N+](=O)[O-])cc1Cl` [AKLOMIDE]: the IC50 was > 1000 µM.
In the case of `CN1CCc2cccc3c2[C@H]1Cc1ccc(O)c(O)c1-3` (stereo in doubt; form 2) [APOMORPHINE] it was 391 µM.
As for `C[C@H](CN(C(=O)c1ccc(C#N)cc1)c1ccccn1)N1CCN(c2cccc3c2OCCO3)CC1` [LECOZOTAN], the figure is < 10 µM; as for `COc1ccnc(-c2cccc(C)c2[S+]([O-])c2nc3ccccc3[nH]2)c1` (stereo not given), < 10 µM.
As for `CCCCOCCOCCOCc1cc2c(cc1CCC)OCO2` [PIPERONYL BUTOXIDE], the figure is < 10 µM; as for `N=C1NC(O)C[C@H]([C@@H]2NC(=O)/C(=C/NC(N)=O)NC(=O)[C@H](CO)NC(=O)[C@H](CO)NC(=O)[C@@H](NC(=O)CC(N)CCCN)CNC2=O)N1` (stereo partly drawn) (ξβ3hOrn-[Dap]SS[ΔAla(Z-3-ureido)][X2]; lactam 1-C), > 1000 µM; as for `Nc1nc2ccc(OC(F)(F)F)cc2s1` [RILUZOLE], 139 µM.
For `Nc1ccc(CN2C(=O)C(Nc3ccc(N4CCOCC4)cc3)=C(c3ccccc3)C2=O)cn1`, the IC50 was < 10 µM.
Turning to `C[C@]12CCC(=O)C=C1CC[C@@H]1[C@@H]2C(=O)C[C@@]2(C)[C@H]1CC[C@]2(O)C(=O)CO` [CORTISONE], the IC50 turned out to be 108 µM.
Regarding `C[C@@H]1O[C@@H](O[C@H]2C[C@@H](O)[C@]3(CO)[C@H]4[C@H](O)C[C@]5(C)[C@@H](C6=CC(=O)OC6)CC[C@]5(O)[C@@H]4CC[C@]3(O)C2)[C@H](O)[C@H](O)[C@H]1O` [OUABAIN], the IC50 is > 1000 µM.
Turning to `COc1ccc(-c2cc(C(F)F)nn2-c2ccc(S(N)(=O)=O)cc2)cc1F` [DERACOXIB], the IC50 came to 20.2 µM.
Turning to `COc1ccccc1N1CCN(CC(O)COc2cccc3ccccc23)CC1` (stereo not given) [NAFTOPIDIL], the half-maximal inhibitory concentration (IC50) was < 10 µM.
In the case of `CCN(CC)CCOc1ccc(C(=C(Cl)c2ccccc2)c2ccccc2)cc1` [CLOMIPHENE] it was < 10 µM; in that of `CCC1=C(C)CN(C(=O)NCCc2ccc(S(=O)(=O)NC(=O)N[C@H]3CC[C@H](C)CC3)cc2)C1=O` [GLIMEPIRIDE], < 10 µM; in that of `Clc1ccc2c(c1)C(N1CCNCC1)=Nc1ccccc1O2` [AMOXAPINE], 230 µM.
As for `CSCCNc1nc(SCCC(F)(F)F)nc2c1ncn2[C@@H]1O[C@H](COP(=O)(O)OP(=O)(O)C(Cl)(Cl)P(=O)(O)O)[C@@H](O)[C@H]1O` [CANGRELOR], the figure is > 1000 µM; as for `COc1ccc2c(c1OC)C(=O)OC2C1c2c(cc3c(c2OC)OCO3)CCN1C` (stereo not given), 23.9 µM; as for `Cc1ccc(Cl)c(Nc2ccccc2C(=O)O)c1Cl` [MECLOFENAMIC ACID], 27.2 µM.
As for `CCCCOC(=O)c1ccc(N)cc1` [BUTAMBEN], the figure is 181 µM; as for `CCN(Cc1ccncc1)C(=O)C(CO)c1ccccc1` (stereo not given) [TROPICAMIDE], 151 µM; as for `O=c1c2ccccc2[se]n1-c1ccccc1` [EBSELEN], < 10 µM.
Consider `O=C(O)Cc1ccccc1Oc1ccc(Cl)cc1Cl` [FENCLOFENAC], for which the IC50 was 236 µM.
As for `CCCCOc1cc(C(=O)OCCN(CC)CC)ccc1N` [BENOXINATE], the figure is 309 µM; as for `CN1C(=O)CC(c2ccccc2)C1=O` (stereo not given) [PHENSUXIMIDE], > 1000 µM; as for `O=C(OCC(O)CO)c1ccccc1Nc1ccnc2cc(Cl)ccc12` (stereo not given) [GLAFENINE], < 14.9 µM.
Take `O=C1c2ccccc2S(=O)(=O)N1CCCCN1CCN(c2ncccn2)CC1` [IPSAPIRONE]: the IC50 stood at 31.2 µM.
In the case of `CCCC(C(=O)OCCN(CC)CC)(c1ccccc1)c1ccccc1` [PROADIFEN] it was < 13.2 µM; in that of `CC(C)NNC(=O)c1ccncc1` [IPRONIAZID], > 953 µM; in that of `COc1ccccc1OCC(O)COC(N)=O` (stereo not given) [METHOCARBAMOL], > 1000 µM.
As to `CCCc1ccc(OCC(C)O)c2c(=O)cc(C(=O)O)oc12` (stereo not given), the half-inhibitory concentration (IC50) worked out at 271 µM.
In the case of `Cc1ccc(S(=O)(=O)NC(=O)NN2CCCCCC2)cc1` [TOLAZAMIDE] it was 286 µM.
For the molecule `Cc1cc(=O)[nH]c(=S)[nH]1` [METHYLTHIOURACIL], the IC50 is > 1000 µM.
As for `O=c1[nH]c2c(O)ccc(CCNCCS(=O)(=O)CCCOCCc3ccccc3)c2s1` [SIBENADET], the figure is < 10 µM.
In the case of `CC1CC(OC(=O)C(O)c2ccccc2)CC(C)(C)C1` (stereo not given) [CYCLANDELATE] it was 15 µM; in that of `Nc1nc(NCCN2CCOCC2)nc2nc(-c3ccco3)nn12`, > 1000 µM; in that of `CCC(=O)OC(OP(=O)(CCCCc1ccccc1)CC(=O)N1CC(C2CCCCC2)CC1C(=O)O)C(C)C` (stereo not given), < 13.3 µM.
Turning to `CC1(C)CC(O)CC(C)(C)N1[O]` [TEMPOL], the half-maximal inhibitory concentration (IC50) was > 1000 µM.
In the case of `NCCS` [CYSTEAMINE] it was 331 µM.
As for `Cc1cc2c(cc(C(=O)O)n2Cc2ccc(Cl)c(Cl)c2)o1`, the figure is 15.9 µM; as for `CC(C)COCC(CN(Cc1ccccc1)c1ccccc1)N1CCCC1` (stereo not given) [BEPRIDIL], < 16.5 µM.
With `CCCC(=O)OCOC(=O)C1=C(C)NC(C)=C(C(=O)OC)C1c1cccc(Cl)c1Cl` (stereo not given) [CLEVIDIPINE], the 50% inhibitory concentration (IC50) worked out at 36.4 µM.
As for `CCC(=N\O)/C(C)=C/c1ccc(F)cc1` [A-079], the figure is 26.8 µM.
In the case of `O=C1CC2(CCCC2)CC(=O)N1CCCCN1CCN(c2ncccn2)CC1` [BUSPIRONE] it was 59.6 µM.
In the case of `N=C(N)N/N=C/c1c(Cl)cccc1Cl` [GUANABENZ] it was 344 µM; in that of `CN(C)C(=O)c1ccc(S(=O)(=O)c2ccc(NC(=O)[C@@](C)(O)C(F)(F)F)c(Cl)c2)cc1`, < 12.8 µM; in that of `Cc1cc(CCC(=O)O)cc(C)c1-c1nc2ccc(-c3nnc(Nc4cccc(Cl)c4)o3)cc2[nH]1`, < 10 µM.
Take `Oc1ccc(C(O)CNCCCCCCNCC(O)c2ccc(O)c(O)c2)cc1O` (stereo not given) [HEXOPRENALINE]: the IC50 was > 1000 µM.
In the case of `O=C(CCCCC(=O)Nc1c(I)cc(I)c(C(=O)O)c1I)Nc1c(I)cc(I)c(C(=O)O)c1I` it was > 970 µM.
In the case of `CN1CCC[C@H]1c1cccnc1` [NICOTINE], the half-inhibitory concentration (IC50) is > 1000 µM.
As for `N#Cc1ccc(C(c2ccc(C#N)cc2)n2cncn2)cc1` [LETROZOLE], the figure is 225 µM; as for `N[C@H]1CCN(c2ccc3c(C(=O)NCC4CCCCC4)c(Cl)ccc3n2)C1`, 107 µM.
As for `CC[N+](C)(C)Cc1ccccc1Br` [BRETYLIUM], the figure is > 1000 µM; as for `CC(=O)NC[C@H]1CN(c2cc(F)c(C3=CCN(C(=O)CO)CC3)c(F)c2)C(=O)O1`, > 1000 µM.
In the case of `Nc1nc2c(c(=O)[nH]1)N(C=O)C(CNc1ccc(C(=O)N[C@@H](CCC(=O)O)C(=O)O)cc1)CN2` (stereo not given in full) [LEUCOVORIN] it was > 1000 µM; in that of `CC(=O)[C@@]1(O)CC[C@H]2[C@@H]3C[C@H](C)C4=CC(=O)C=C[C@]4(C)[C@@]3(F)[C@@H](O)C[C@@]21C` [FLUOROMETHOLONE], 101 µM.
In the case of `CC1=C(/C=C/C(C)=C/C=C/C(C)=C/C(=O)O)C(C)(C)CCC1` [TRETINOIN], the IC50 is < 10 µM.
Turning to `CCCc1c2nc(C(=O)O)cc(C(F)(F)F)c2cc2c(=O)cc(C(=O)O)oc12`, the IC50 was determined as 365 µM.
For the molecule `CC(C)[C@H](O)C(=O)N[C@@H](C)C(=O)N[C@@H]1C(=O)N(C)CCc2ccccc21`, the IC50 came to 472 µM.
As for `CCN(CC)CCOC(=O)c1ccc(N)cc1Cl` [CHLOROPROCAINE], the figure is > 1000 µM.
As for `Cc1cc(C)nc(NS(=O)(=O)c2ccc(N)cc2)n1` [SULFAMETHAZINE], the figure is > 1000 µM.
